Assay results as given in patent US12319655B2, “RAF kinase inhibitors and methods of use thereof” (Deciphera Pharmaceuticals, LLC, priority 2021, dated 2025).

Legend:
[1] = tested on: A375 cells; test: A375 Cell Proliferation Assay (1); type: cell-based; details: Homo sapiens, A-375
Outline: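 Resazurin fluorescence (excitation 540 nm, emission 600 nm, after a further 5-6 h) gave IC50s from triplicate compound dilution series.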

[2] = tested on: WM3928 cells; test: WM3928 Cell Proliferation Assay (1); type: cell-based
Outline: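 IC50 was derived from resazurin fluorescence (ex 540, em 600 nm) after a 6–7 h dye incubation. Before that, cells had 67–72 h of compound exposure at 37 °C, 5% CO2.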

[3] = tested on: A375 cells; test: A375 Cell Proliferation Assay (2); type: cell-based; details: Homo sapiens, A-375
Description: A375 Cell Proliferation Assay (2)
A375 cells (catalog (#CRL-1619) are obtained from the American Type Culture Collect (ATTC, Manassas, VA). Briefly, cells were grown in DMEM High Glucose supplemented with 10% characterized fetal bovine serum (Invitrogen, Carlsbad, CA) and 1% Penicillin/Streptomycin/L-Glutamine at 37° C., 5% CO2, and 95% humidity. Cells are expanded until reaching 70-95% confluency at which point they are sub-cultured or harvested for assay use. Using the Beckman Coulter Echo 650, a serial dilution of test compound is dispensed into a 384-well black clear bottom plate in triplicate. Six hundred twenty-five cells are added per well in 50 μL complete growth medium in the 384-well plate. Plates are incubated for 67-72 h at 37° C., 5% CO2, and 95% humidity. At the end of the incubation, 10 μL of a 440 μM solution of resazurin (Sigma, St. Louis, MO) in PBS is added to each well of the plate and plates are incubated for an additional 3-6 h at 37° C., 5% CO2, and 95% humidity. Plates are read on a Synergy2 or equivalent reader (Biotek, Winooski VT) using an excitation of 540 nm and an emission of 600 nm. Data is analyzed using Prism software (GraphPad, San Diego, CA) to calculate IC50 values.

[4] = molecular target: A-Raf kinase (SEQ. ID No: 1) (Homo sapiens (Human), UniProt P10398, Y301D/Y302D); test: Biochemical Assay for A-Raf (2); details: Table J, biochemical assay (2); read-out: ARAF (2)
Description: Biochemical Assay for A-Raf (2)
Activity of A-Raf kinase (SEQ. ID No: 1) was determined spectroscopically using a coupled pyruvate kinase/lactate dehydrogenase assay that continuously monitors the ATP hydrolysis-dependent oxidation of NADH (e.g., Schindler et al., Science, 2000, 289, 1938-1942). Assays were conducted in 384-well plates (25 μL final volume) using 20 nM A-Raf (Eurofins), 1.5 units pyruvate kinase, 2.1 units lactate dehydrogenase, 1 mM phosphoenol pyruvate, 0.7 mM NADH, 100 nM MEK (SignalChem), and 1 mM ATP in assay buffer (100 mM Tris, pH 7.5, 15 mM MgCl2, 0.5 mM DTT, 0.1% octyl-glucoside, 0.002% (w/v) BSA, and 0.002% Triton X-100). Inhibition of A-Raf was measured by adding serial diluted test compound (final assay concentration of 1% DMSO). A decrease in absorption at 340 nm was monitored hourly for 4 h at 30° C. on a multi-mode microplate reader (BioTek). The reaction rate was calculated using the 3 to 4 h time frame. The reaction rate at each concentration of compound was converted to percent inhibition using controls (i.e., reaction with no test compound and reaction with a known inhibitor) and IC50 values were calculated by fitting a four-parameter sigmoidal curve to the data using Prism (GraphPad software).

Chain of A-Raf kinase (SEQ. ID No: 1) (P10398 other isoform, or with tags, fused parts or gaps Y301D (already in the parent)/Y302D (already in the parent)): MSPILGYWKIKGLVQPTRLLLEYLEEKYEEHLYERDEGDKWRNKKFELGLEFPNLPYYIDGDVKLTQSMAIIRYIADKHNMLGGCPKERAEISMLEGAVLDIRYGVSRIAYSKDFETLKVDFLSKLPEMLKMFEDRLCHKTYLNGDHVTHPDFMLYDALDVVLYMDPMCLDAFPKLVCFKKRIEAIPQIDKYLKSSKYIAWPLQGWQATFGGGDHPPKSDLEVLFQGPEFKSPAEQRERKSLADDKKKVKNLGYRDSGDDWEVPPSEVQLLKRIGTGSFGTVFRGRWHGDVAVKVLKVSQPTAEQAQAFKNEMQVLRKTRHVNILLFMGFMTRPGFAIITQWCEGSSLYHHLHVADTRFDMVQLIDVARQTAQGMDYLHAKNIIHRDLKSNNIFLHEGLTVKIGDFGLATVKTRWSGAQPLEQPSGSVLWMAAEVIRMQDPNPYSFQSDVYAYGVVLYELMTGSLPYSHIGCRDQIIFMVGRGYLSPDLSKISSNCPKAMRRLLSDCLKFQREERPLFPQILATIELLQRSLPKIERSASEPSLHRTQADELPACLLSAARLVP

SMILES | IC50 [1] [µM] | IC50 [2] [µM] | IC50 [3] [µM] | IC50 [4] [µM]
COC(=O)Nc1cc(-c2cccc(-c3cc(NC(=O)c4ccnc(C(C)(C)F)c4)cnc3C)c2)ncn1 [Example 404] | 0.1 to 0.5 | 0.1 to 0.5 |  | 
COC(=O)Nc1cc(-c2cncc(-c3cc(NC(=O)c4ccnc(C5(C#N)CC5)c4)ccc3C)c2)ncn1 [Example 405] | ≤ 0.1 | ≤ 0.1 |  | 
Cc1ncc(NC(=O)c2ccnc(C(C)(C)F)c2)cc1-c1cncc(-c2cc(NC(=O)C3CC3)ncn2)c1 [Example 406] | ≤ 0.1 | ≤ 0.1 |  | 
Cc1ncc(NC(=O)c2ccnc(C(C)(C)C#N)c2)cc1-c1cccc(-c2cnc3ccccn23)c1 [Example 407] | 1 to 10 | 1 to 10 |  | 
CNC(=O)c1cc(-c2cncc(-c3cc(NC(=O)c4ccnc(C(C)(C)F)c4)c(F)cc3C)c2)ccn1 [Example 408] | 0.1 to 0.5 | 0.1 to 0.5 |  | 
COC(=O)Nc1cc(-c2cnnc(-c3cc(NC(=O)c4cn(C(C)C)nn4)ccc3C)c2)ccn1 [Example 409] | 1 to 10 | 1 to 10 |  | 
Cc1ncc(NC(=O)c2ccnc(C(C)(C)C#N)c2)cc1-c1cncc(-c2cc(NC(=O)C3CC3)ncn2)c1 [Example 410] | ≤ 0.1 | ≤ 0.1 |  | 
Cc1ccc(NC(=O)c2ccnc(C(C)(C)F)c2)cc1-c1cncc(-c2cc(N)ncn2)c1 [Example 411] | 0.5 to 1 | ≤ 0.1 |  | 
Cc1ccc(NC(=O)c2cn(C(C)C)nn2)cc1-c1cncc(-c2cc(NC(=O)C3CC3)ncn2)c1 [Example 412] | ≤ 0.1 | ≤ 0.1 |  | 
CNC(=O)c1cc(-c2cncc(-c3cc(NC(=O)c4ccnc(C(C)(C)F)c4)ccc3C)c2)ccn1 [Example 413] | ≤ 0.1 | ≤ 0.1 |  | 
COC(=O)Nc1cc(-c2cncc(-c3cc(NC(=O)c4ccnc(C(C)(C)C#N)c4)ccc3C)c2)ncn1 [Example 414] | ≤ 0.1 | ≤ 0.1 |  | 
COC(=O)Nc1cc(-c2cccc(-c3cc(NC(=O)Cn4cc(C(C)C)nn4)cnc3C)c2)ccn1 [Example 415] | 1 to 10 | 1 to 10 |  | 
COC(=O)Nc1cc(-c2cc(-c3cc(NC(=O)c4ccnc(C(C)(C)F)c4)ccc3C)nc(C)n2)ccn1 [Example 416] | 0.1 to 0.5 | ≤ 0.1 |  | 
Cc1ccc(NC(=O)c2ccnc(C(C)(C)F)c2)cc1-c1cncc(-c2ccnc(NC(=O)C3CC3)c2)c1 [Example 417] | ≤ 0.1 | ≤ 0.1 |  | 
Cc1cc(F)c(NC(=O)c2ccnc(C(C)(C)C#N)c2)cc1-c1cncc(-c2ccnc(NC(=O)C3CC3)c2)c1 [Example 418] | ≤ 0.1 | ≤ 0.1 |  | 
Cc1ccc(NC(=O)c2ccnc(C(C)(F)F)c2)cc1-c1cncc(-c2cc(NC(=O)C3CC3)ncn2)c1 [Example 419] | ≤ 0.1 | ≤ 0.1 |  | 
Cc1ccc(NC(=O)c2ccnc(C(C)(C)C#N)c2)cc1-c1cncc(-c2cc(NC(=O)C(C)C)ncn2)c1 [Example 420] | ≤ 0.1 | ≤ 0.1 |  | 
Cc1ccc(NC(=O)c2cc(C3CC3)on2)cc1-c1cncc(-c2cc(NC(=O)C3CC3)ncn2)c1 [Example 421] | ≤ 0.1 | ≤ 0.1 |  | 
Cc1ccc(NC(=O)c2ccnc(C(C)(C)C#N)c2)cc1-c1cncc(-c2cc(N)ncn2)c1 [Example 422] | 1 to 10 | 0.1 to 0.5 |  | 
Cc1cc(F)c(NC(=O)c2ccnc(C(C)(C)F)c2)cc1-c1cncc(-c2cc(NC(=O)C3CC3)ncn2)c1 [Example 423] | ≤ 0.1 | ≤ 0.1 |  | 
Cc1cc(F)c(NC(=O)c2ccnc(C(C)(C)C#N)c2)cc1-c1cncc(-c2cc(NC(=O)C3CC3)ncn2)c1 [Example 424] | ≤ 0.1 | ≤ 0.1 |  | 
COC(=O)Nc1cc(-c2cncc(-c3cc(NC(=O)c4ccnc(C(C)(C)F)c4)ccc3C)c2)ncn1 [Example 425] | ≤ 0.1 | ≤ 0.1 |  | 
CNC(=O)c1cc(-c2nccc(-c3cc(NC(=O)c4ccnc(C(C)(C)F)c4)c(F)cc3C)n2)ccn1 [Example 427] | 0.1 to 0.5 | ≤ 0.1 |  | 
CNC(=O)c1cc(-c2cc(-c3cc(NC(=O)c4ccnc(C(C)(C)F)c4)ccc3C)nc(C)n2)ccn1 [Example 428] | 0.1 to 0.5 | 0.1 to 0.5 |  | 

SMILES | IC50 [1] [µM] | IC50 [2] [µM] | IC50 [3] [µM] | IC50 [4] [µM]
Cc1ccc(NC(=O)c2ccnc(C(F)F)c2)cc1-c1cncc(-c2cc(NC(=O)C3CC3)ncn2)c1 [Example 429] | ≤ 0.1 | ≤ 0.1 |  | 
Cc1ccc(NC(=O)c2cnn(C3CC3)c2)cc1-c1cncc(-c2cc(NC(=O)C3CC3)ncn2)c1 [Example 430] | 0.1 to 0.5 | ≤ 0.1 |  | 
Cc1ccc(NC(=O)c2cc(C(C)(C)C)on2)cc1-c1cncc(-c2cc(NC(=O)C3CC3)ncn2)c1 [Example 431] | ≤ 0.1 | ≤ 0.1 |  | 
Cc1ccc(NC(=O)c2ccnc(C(C)(C)F)c2)cc1-c1cncc(-c2ccnc3c2CC(=O)N3)c1 [Example 432] | 0.5 to 1 | 0.1 to 0.5 |  | 
Cc1ncc(NC(=O)c2ccnc(C(C)(C)F)c2)cc1-c1cncc(-c2ccnc(NC(=O)C3CC3)c2)c1 [Example 433] | ≤ 0.1 | ≤ 0.1 |  | 
Cc1ccc(NC(=O)c2ccnc(C(C)C)c2)cc1-c1cncc(-c2cc(NC(=O)C3CC3)ncn2)c1 [Example 434] | ≤ 0.1 | ≤ 0.1 |  | 
COC(=O)Nc1cc(-c2cncc(-c3cc(NC(=O)c4ccnc(C(C)(C)F)c4)ccc3C)c2)ccn1 [Example 435] | ≤ 0.1 | ≤ 0.1 |  | 
Cc1ccc(NC(=O)c2cc(C3CC3)n(C)n2)cc1-c1nccc(-c2ccnc(NC(=O)C3CC3)c2)n1 [Example 436] | 0.1 to 0.5 | ≤ 0.1 |  | 
CNC(=O)c1cc(-c2cc(-c3cc(NC(=O)c4ccnc(C(C)(C)C#N)c4)ccc3OC)ccn2)ccn1 [Example 437] | 1 to 10 | 0.5 to 1 |  | 
COc1ccc(NC(=O)c2ccnc(C(C)(C)C#N)c2)cc1-c1cccc(-c2cc(NC(=O)C3CC3)ncn2)c1 [Example 438] | ≤ 0.1 | ≤ 0.1 |  | 
CNC(=O)c1cc(-c2cncc(-c3cc(NC(=O)c4ccnc(C(C)(F)F)c4)ccc3C)c2)ncn1 [Example 439] |  |  | 0.1 to 0.5 | 1 to 10
CNC(=O)c1cc(-c2cncc(-c3cc(NC(=O)c4ccnc(C(C)(F)F)c4)ccc3C)c2)ccn1 [Example 440] |  |  | 0.1 to 0.5 | 1 to 10
CNC(=O)c1cc(-c2cc(-c3cc(NC(=O)c4ccnc(C(C)(F)F)c4)ccc3C)ccn2)ccn1 [Example 441] |  |  | ≤ 0.1 | 0.5 to 1
CNC(=O)c1cc(-c2cncc(-c3cc(NC(=O)c4ccnc(C(C)(C)C#N)c4)ccc3C)c2)ccn1 [Example 442] |  |  | ≤ 0.1 | 1 to 10
CNC(=O)c1cc(-c2cc(-c3cc(NC(=O)c4ccnc(C(C)C)c4)ccc3C)ccn2)ccn1 [Example 443] |  |  | 0.1 to 0.5 | 0.5 to 1
CNC(=O)c1cc(-c2cc(-c3cc(NC(=O)c4ccnc(C(C)(C)F)c4)cnc3C)ccn2)ccn1 [Example 444] |  |  | 0.1 to 0.5 | 1 to 10
CNC(=O)c1cc(-c2cncc(-c3cc(NC(=O)c4ccnc(C(C)C)c4)ccc3C)c2)ccn1 [Example 445] |  |  | 0.1 to 0.5 | 0.5 to 1
CNC(=O)c1cc(-c2cncc(-c3cc(NC(=O)c4ccnc(C(C)C)c4)ccc3C)c2)ncn1 [Example 446] |  |  | 0.1 to 0.5 | 1 to 10
Cc1ccc(NC(=O)c2ccnc(C(C)(C)F)c2)cc1-c1ccnc(-c2ccnc(C#N)c2)c1 [Example 447] |  |  | 1 to 10 | 1 to 10
Cc1ccc(NC(=O)c2ccnc(C(C)(C)F)c2)cc1-c1ccnc(-c2ccnc(C(=O)NCCO)c2)c1 [Example 448] |  |  | 0.1 to 0.5 | 1 to 10
CNC(=O)c1cc(-c2cc(-c3cc(NC(=O)c4ccnc(C(C)(C)F)c4)ccc3C)cc(OCCO)n2)ccn1 [Example 449] |  |  | ≤ 0.1 | 1 to 10
Cc1ccc(NC(=O)c2ccnc(C(C)(C)F)c2)cc1-c1ccnc(-c2ccnc(C(=O)NC3CN(C)C3)c2)c1 [Example 450] |  |  | 0.1 to 0.5 | 1 to 10
Cc1ccc(NC(=O)c2ccnc(C(C)(C)F)c2)cc1-c1ccnc(-c2ccnc(C(=O)NCC#N)c2)c1 [Example 451] |  |  | ≤ 0.1 | 1 to 10
